The text below walks through data of patent US8309580B2, “Heterocyclic compound” (Takeda Pharmaceutical Company Limited, priority 2007, dated 2012).

For orientation: IC50 means the point on the concentration scale where inhibition reaches its midpoint.

The target in assay [1] is human-type glucagon receptor (Homo sapiens, UniProt P47871). Kind of assay: Glucagon binding inhibitory activity ([125I]-glucagon binding to glucagon receptor membrane protein). The following applies: glucagon receptor membrane protein from FreeStyle CHO cells, 90 min at room temperature. As for the experimental part: The glucagon binding inhibitory action of the compound of the present invention was evaluated by the following method.
(1) Preparation of Glucagon Receptor Membrane Protein
A human-type glucagon receptor was expressed using FreeStyle CHO Expression System (Invitrogen). A transient expression in FreeStyle CHO cell was performed using a human-type glucagon expression plasmid DNA and according to the manual attached to the FreeStyle CHO Expression System. The above-mentioned DNA was transfected and the cultured with shaking for 2 days (37° C., 8% CO2, 125 rpm). 2400 ml of culture medium was centrifuged at 2,000 rpm for 10 min and the cells were collected. The collected cells were washed with PBS, suspended in homogenate buffer [10 mM NaHCO3 (pH 7.4), 1 mM EDTA, Complete EDTA-free (Roche, 1 tablet/50 mL)] and disrupted by polytron cell disrupter (Kinematica AG). Disruption solution was centrifuged at 2,000 rpm for 10 min and the supernatant was collected. The supernatant was centrifuged at 35,000 rpm for 60 min and the precipitate was suspended in a buffer [20 mM Tris-HCl (pH 7.4), 5 mM EDTA, Complete EDTA-free (Roche, 1 tablet/50 mL)] to give a glucagon receptor membrane protein (452 mg).
(2) Measurement of Glucagon Binding Inhibitory Activity
To each well of 96 well plate (Corning Incorporated) were added 25 μl of test compound (containing 0.4% DMSO), 50 μl of glucagon receptor membrane protein diluted with reaction buffer [50 mM Tris-HCl (pH 7.4), 5 mM EGTA, 5 mM magnesium chloride, 0.1% BSA, 0.005% Tween20] to 100 μg/ml, and 25 μl of radioactive labeled glucagon ([^125I]-Receptor Grade Glucagon; Perkin Elmer Inc.) diluted with the reaction buffer to 200 pM, whereby the reaction was started. The plate was stood for 90 min at room temperature. The reaction solution was transferred from the reaction plate to a 96 well unifilter GF/C plate (Perkin Elmer Inc.) using a cell harvester (Perkin Elmer Inc.) and the membrane fraction was collected on the filter by suction. The filter was presoaked in 2 mg/ml of polyethyleneimine to prevent non-specific adsorption of labeled ligand. The filter was washed 4 times with a reaction buffer and dried for 2 hr at 42° C. To each well was added 25 μl of scintillator (MicroScint0; Perkin Elmer Inc.), and the fluorescence amount was measured using a microplate scintillation counter (TopCount NXT™; Perkin Elmer Inc.). The glucagon binding inhibitory activity (IC50 value) of the well added with the test compound (containing 0.4% DMSO) was calculated, using the reaction rate of the well added only with 0.4% DMSO as 0% inhibitory rate, and the reaction rate of the well added with non-labeled glucagon (final concentration 1 μM) as 100% inhibitory rate.

The test system of assay [2] is glucagon-induced blood glucose increase. Briefly: Test of glucagon-induced blood glucose increase-suppressive action in mouse. Type of assay: in vivo. The following applies: male ICR mouse, fasted; test compound 10 mg/kg orally 60 min before s.c. glucagon 10 μg/kg with octreotide; blood glucose 30 min after glucagon. The procedure:
Test of Glucagon-Induced Blood Glucose Increase-Suppressive Action in Mouse
Full feeding ICR mouse (male, 7-week-old) was fasted, and 0.5% methylcellulose suspension (compound-administration group, 8 mice per group) containing a test compound (10 mg/kg body weight) or 0.5% methylcellulose suspension (compound-non-administration group, 8 mice per group) was orally administered. After 60 minutes, glucagon (10 μg/kg body weight, Novo Nordisk Pharma Ltd.) containing octreotide (100 μg/kg body weight, Novo Nordisk Pharma Ltd.) was subcutaneously administered. After 30 minutes from the glucagon administration, blood samples were collected from the tail vein of the mouse, and the blood glucose level was measured by a glucose self-test kit ACCU-CHEK (Roche Diagnostics K.K.). As a non-treatment group (8 mice per group), the blood glucose level of mouse of the compound-non-administration group, which was free of glucagon administration, was measured in the same manner as in the above.
The differences between the average blood glucose level of the compound-non-administration group, the average blood glucose level of the compound administration group, and the average blood glucose level of the non-treatment group were each calculated, and the percentage of the “difference between the blood glucose level of the compound administration group and that of the non-treatment group” relative to the “difference between the blood glucose level of the compound-non-administration group and that of the non-treatment group” as 100% was determined as an “increasing rate of blood glucose (% of control)”.

Chain of human-type glucagon receptor (P47871 26-477): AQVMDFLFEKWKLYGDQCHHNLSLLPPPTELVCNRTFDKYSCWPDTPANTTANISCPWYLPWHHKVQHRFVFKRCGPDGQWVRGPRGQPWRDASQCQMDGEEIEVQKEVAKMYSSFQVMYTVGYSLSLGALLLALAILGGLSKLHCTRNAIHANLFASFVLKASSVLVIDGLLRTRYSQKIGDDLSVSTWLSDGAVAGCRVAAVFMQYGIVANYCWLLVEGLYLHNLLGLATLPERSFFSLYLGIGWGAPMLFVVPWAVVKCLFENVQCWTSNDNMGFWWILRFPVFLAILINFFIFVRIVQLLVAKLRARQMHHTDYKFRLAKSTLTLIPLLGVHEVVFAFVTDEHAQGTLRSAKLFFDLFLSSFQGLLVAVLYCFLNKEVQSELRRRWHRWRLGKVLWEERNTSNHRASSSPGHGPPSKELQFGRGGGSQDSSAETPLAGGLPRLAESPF

Compound `Cc1oc(-c2ccc(OC(F)(F)F)cc2)cc1C(Nc1ccc(C(=O)NCCC(=O)O)cc1)C1CCCCC1` (centres unmarked) [Ex. 53, 3-({4-[(cyclohexyl{2-methyl-5-[4-(trifluoromethoxy)phenyl]-3-furyl}methyl)amino]benzoyl}amino)propanoic acid] gave a concentration for half-maximal inhibition (IC50) in assay [1] of 110 nM. The same measure, in the same setting: the result for `CCc1oc(-c2ccc(C(F)(F)F)cc2)cc1C(Nc1ccc(C(=O)N(C)CCC(=O)O)cc1)C1CCCCC1` (centres unmarked) [Ex. 10, 3-[{4-[(cyclohexyl{2-ethyl-5-[4-(trifluoromethyl)phenyl]-3-furyl}methyl)amino]benzoyl}(methyl)amino]propanoic acid] reads 250 nM; that for `CCc1oc(-c2ccc(C(F)(F)F)cc2)cc1C(CC(C)C)Oc1ccc(C(=O)NCCC(=O)O)cc1` (centres unmarked) [Ex. 5, 3-{[4-(1-{2-ethyl-5-[4-(trifluoromethyl)phenyl]-3-furyl}-3-methylbutoxy)benzoyl]amino}propanoic acid], 630 nM.

In the case of `COCc1oc(-c2ccc(OC)nc2)cc1C(Nc1ccc(C(=O)N(C)CCC(=O)O)cc1)C1CCCCC1` (centres unmarked) [Example 147, 3-[{[4-({cyclohexyl[2-(methoxymethyl)-5-(6-methoxypyridin-3-yl)furan-3-yl]methyl}amino)phenyl]carbonyl}(methyl)amino]propanoic acid], the “increasing rate of blood glucose (% of control)” value in assay [2] is 8.6 % of control. The same measure, in the same setting: the result for `CCc1oc(-c2ccc(C(F)(F)F)cc2)cc1C(Nc1ccc(C(=O)N(C)CCC(=O)O)cc1)C1CCCCC1` (centres unmarked) [Ex. 87, 3-[({4-[(cyclohexyl{2-ethyl-5-[4-(trifluoromethyl)phenyl]furan-3-yl}methyl)amino]phenyl}carbonyl)(methyl)amino]propanoic acid] reads 6.5 % of control. As for `COc1ccc(-c2cc(C(Nc3ccc(C(=O)N(C)CCC(=O)O)cc3)C3CCCCC3)c(C)o2)cn1` (single isomer, unassigned) [Ex. 166, 3-[{[4-({cyclohexyl[5-(6-methoxypyridin-3-yl)-2-methylfuran-3-yl]methyl}amino)phenyl]carbonyl}(methyl)amino]propanoic acid], in assay [1], the IC50 was 180 nM. As for `CCc1sc(-c2ccc(C(F)(F)F)cc2)cc1C(Nc1ccc(C(=O)NCCC(=O)O)cc1)C1CCCCC1` (centres unmarked) [Ex. 71, 3-[({4-[(cyclohexyl{2-ethyl-5-[4-(trifluoromethyl)phenyl]thiophen-3-yl}methyl)amino]phenyl}carbonyl)amino]propanoic acid], the IC50 in assay [1] is 57 nM. The same measure, in the same setting: as for `Cc1oc(-c2ccc(F)cc2)cc1C(Nc1ccc(C(=O)N(C)CCC(=O)O)nc1)C1CCCCC1` (centres unmarked) [Ex. 318, 3-[{[5-({cyclohexyl[5-(4-fluorophenyl)-2-methylfuran-3-yl]methyl}amino)pyridin-2-yl]carbonyl}(methyl)amino]propanoic acid], the figure is 400 nM.

On to `COc1ccc(-c2cc(C(CC(C)C)Nc3ccc(C(=O)N(C)CCC(=O)O)cc3)c(C)o2)cn1` (centres unmarked) [Example 149, 3-[{[4-({1-[5-(6-methoxypyridin-3-yl)-2-methylfuran-3-yl]-3-methylbutyl}amino)phenyl]carbonyl}(methyl)amino]propanoic acid], for which the “increasing rate of blood glucose (% of control)” value in assay [2] was 6.8 % of control.

In the case of `CCc1sc(CC(C)C)cc1C(Nc1ccc(C(=O)NCCC(=O)O)cc1)C1CCCCC1` (centres unmarked) [Ex. 83, 3-({[4-({cyclohexyl[2-ethyl-5-(2-methylpropyl)thiophen-3-yl]methyl}amino)phenyl]carbonyl}amino)propanoic acid], in assay [1], the 50% inhibitory concentration (IC50) turned out to be 190 nM. Still for that read-out and setting: the result for `COCc1oc(-c2ccc(F)cc2)cc1C(Nc1ccc(C(=O)N(C)CCC(=O)O)cc1)C1CCCCC1` (centres unmarked) [Ex. 314, 3-[{[4-({cyclohexyl[5-(4-fluorophenyl)-2-(methoxymethyl)furan-3-yl]methyl}amino)phenyl]carbonyl}(methyl)amino]propanoic acid] reads 290 nM. The same measure, in the same setting: the result for `COc1ccc(-c2cc(C(CC(C)C)Nc3ccc(C(=O)N(C)CCC(=O)O)cc3)c(C)o2)cn1` (single isomer, unassigned) [Ex. 319, 3-[{[4-({1-[5-(6-methoxypyridin-3-yl)-2-methylfuran-3-yl]-3-methylbutyl}amino)phenyl]carbonyl}(methyl)amino]propanoic acid] reads 230 nM; that for `CCc1sc(C2CCCCC2)cc1C(Nc1ccc(C(=O)NCCC(=O)O)cc1)C1CCCCC1` (centres unmarked) [Ex. 79, 3-{[(4-{[cyclohexyl(5-cyclohexyl-2-ethylthiophen-3-yl)methyl]amino}phenyl)carbonyl]amino}propanoic acid], 97 nM.

Turning to `Cc1sc(-c2ccccc2)cc1C(Nc1ccc(C(=O)N(C)CCC(=O)O)nc1)C1CCCCC1` (centres unmarked) [Ex. 311, 3-{[(5-{[cyclohexyl(2-methyl-5-phenylthiophen-3-yl)methyl]amino}pyridin-2-yl)carbonyl](methyl)amino}propanoic acid], in assay [1], the IC50 amounted to 650 nM.
